The values below come from patent US7332608B2, “Anthranilamides and methods of their use” (SANOFI-AVENTIS Deutschland GmbH, priority 2001, dated 2008).

T1 sequence (P22460 whole entry): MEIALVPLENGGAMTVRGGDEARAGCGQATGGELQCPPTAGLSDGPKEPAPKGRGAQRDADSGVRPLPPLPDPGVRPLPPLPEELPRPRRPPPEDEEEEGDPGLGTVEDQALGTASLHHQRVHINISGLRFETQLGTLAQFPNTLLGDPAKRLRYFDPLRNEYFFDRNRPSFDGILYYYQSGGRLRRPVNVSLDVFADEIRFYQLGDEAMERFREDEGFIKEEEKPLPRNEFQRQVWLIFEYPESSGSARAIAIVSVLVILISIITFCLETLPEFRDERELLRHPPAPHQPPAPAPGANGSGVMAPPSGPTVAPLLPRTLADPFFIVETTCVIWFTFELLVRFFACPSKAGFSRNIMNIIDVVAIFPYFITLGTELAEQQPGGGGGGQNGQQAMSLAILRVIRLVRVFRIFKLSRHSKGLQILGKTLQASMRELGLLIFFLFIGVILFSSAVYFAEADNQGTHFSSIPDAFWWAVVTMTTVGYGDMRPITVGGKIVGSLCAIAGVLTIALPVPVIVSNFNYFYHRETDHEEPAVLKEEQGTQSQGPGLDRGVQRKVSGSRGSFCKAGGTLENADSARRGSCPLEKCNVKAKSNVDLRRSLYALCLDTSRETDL

This assay has as its target T1, Human Kv1.5 channels (Homo sapiens, UniProt P22460).
T1 construct: expressed in transfected cells; host or cells: Xenopus laevis oocytes injected with in vitro synthesized Kv1.5-encoding RNA
Briefly: Kv1.5 currents in Xenopus oocytes, two-microelectrode voltage clamp. Type of assay: cell-based. The note with it: human Kv1.5 expressed in Xenopus laevis oocytes; voltage jumps 500 ms to 0 mV and 40 mV; room temperature; Hill equation. How it is done:
Human Kv1.5 channels were expressed in Xenopus oocytes. For this purpose, firstly ooytes were isolated from Xenopus laevis and were defolliculated. Kv1.5-encoding RNA which had been synthesized in vitro was then injected into these oocytes. After 1-7 days of Kv1.5 protein expression, the Kv1.5 currents were measured on the oocytes by the two-microelectrode voltage clamp technique. The Kv1.5 channels were for this purpose usually activated with voltage jumps lasting 500 ms to 0 mV and 40 mV. A solution of the following composition flowed through the bath: NaCl 96 mM, KCl 2 mM, CaCl2 1.8 mM, MgCl2 1 mM, HEPES 5 mM (titrated to pH 7.4 with NaOH). These experiments were carried out at room temperature. The following were employed for data acquisition and analysis: geneclamp amplifier (Axon Instruments, Foster City, USA) and MacLab D/A converter and software (ADInstruments, Castle Hill, Australia). The compounds of the invention were tested by adding them in various concentrations to the bath solution. The effects of the compounds were calculated as percentage inhibition of the Kv1.5 control current which was obtained when no compound was added to the solution. The data were then extrapolated using the Hill equation in order to determine the inhibitory concentrations IC50 for the respective compounds.
The IC50 is the concentration needed to halve the response being measured. A low value points to greater potency in that assay. Compound `COc1ccc(S(=O)(=O)Nc2ccc(OC)cc2C(=O)NC(c2cccnc2)C2CC2)cc1` (stereo not drawn) [Example 134] registered an IC50 of 900 nM.
With `CCC(NC(=O)c1cc(OC)ccc1NS(=O)(=O)c1ccc(C)cc1)c1ccc(C)o1` (stereo not drawn) [Example 135], inhibition was half-maximal at 1200 nM (IC50).
In the case of `CCCCS(=O)(=O)Nc1ccc(C)cc1C(=O)NC(CC)c1ccc(C)o1` (stereo not drawn) [Example 136] it was 900 nM; in that of `CCCCS(=O)(=O)Nc1ccc(C)cc1C(=O)NC(CC)Cc1cccnc1` (stereo not drawn) [Example 138], 1800 nM; in that of `CCC(NC(=O)c1cc(OC)ccc1NS(=O)(=O)c1ccc(C)cc1)c1ccc(OC)nc1` (stereo not drawn) [Example 139], 1000 nM.
Take `CCC(Cc1c[nH]c2ccccc12)NC(=O)c1cc(OC)ccc1NS(=O)(=O)c1ccc(C)cc1` (stereo not drawn) [Example 140]: the midpoint of inhibition, the IC50, lay at 1400 nM.
The value for `CCC(NC(=O)c1cc(OC)ccc1NS(=O)(=O)c1ccc(C)cc1)c1ccc(C)nc1` (stereo not drawn) [Example 141] was 1100 nM; that for `CCC(Cc1ccccn1)NC(=O)c1cc(OC)ccc1NS(=O)(=O)c1ccc(C)cc1` (stereo not drawn) [Example 142] was 700 nM; that for `COc1ccc(NS(=O)(=O)c2ccc(C)cc2)c(C(=O)N[C@H]2CC[C@H](C)CC2)c1` [Example 143] was 3600 nM.
The value for `CCCCS(=O)(=O)Nc1ccc(C)cc1C(=O)NC(CC)c1cccnc1` (stereo not drawn) [Example 144] was 2800 nM.
In the case of `CCC(NC(=O)c1ccccc1NS(=O)(=O)c1ccc(C)cc1)c1ccco1` (stereo not drawn) [Example 145] it was 2600 nM; in that of `CCC(NC(=O)c1cc(C)ccc1NS(=O)(=O)C1CC1)c1ccc(C)o1` (stereo not drawn) [Example 146], 2500 nM; in that of `CC[C@H](NC(=O)c1cc(OC)ccc1NS(=O)(=O)CC)c1ccccc1` [Example 147], 3800 nM.
Regarding `CCCS(=O)(=O)Nc1ccc(OC)cc1C(=O)N[C@@H](CC)c1ccccc1` [Example 148], the midpoint of inhibition, the IC50, lay at 2100 nM.
In the case of `CC[C@H](NC(=O)c1cc(OC)ccc1NS(=O)(=O)C(C)C)c1ccccc1` [Example 149] it was 2200 nM.
In the case of `CC[C@H](NC(=O)c1cc(OC)ccc1NS(=O)(=O)c1ccc(OC)cc1)c1ccccc1` [Example 150] it was 300 nM; in that of `CC[C@H](NC(=O)c1ccccc1NS(=O)(=O)c1ccc(OC)c(OC)c1)c1ccccc1` [Example 151], 1500 nM.
In the case of `CC[C@H](NC(=O)c1cc(O)ccc1NS(=O)(=O)c1ccc(C)cc1)c1ccccc1` [Example 152, 5-Hydroxy-N-(1-phenylpropyl)-2-(toluene-4-sulfonylamino)benzamide], the half-maximal inhibitory concentration (IC50) came out at 2600 nM.
